What was measured:
Candida tropicalis = assay: MIC microbroth dilution (CLSI); type: cell-based; conditions: ATCC750 - reference strain
Aspergillus niger = assay: MIC microbroth dilution (CLSI); type: cell-based; conditions: G.R. Micro collection
[1] = system: Trichophyton mentagrophytes; assay: MIC microbroth dilution (CLSI); type: cell-based; conditions: G.R. Micro collection
[2] = system: Trichophyton interdigitale; assay: MIC microbroth dilution (CLSI); type: cell-based; conditions: G.R. Micro collection
Microsporum canis = assay: MIC microbroth dilution (CLSI); type: cell-based; conditions: G.R. Micro collection
Cryptococcus neoformans = assay: MIC microbroth dilution (CLSI); type: cell-based; conditions: G.R. Micro collection
Enterococcus gallinarum = assay: MIC microbroth dilution (CLSI); type: cell-based; conditions: vancomycin-resistant (VanC) clinical isolate
Excerpt: (§1) Cation-adjusted Mueller-Hinton broth (Oxoid Ltd., Basingstoke, UK and Trek Diagnostic Systems Ltd., East Grinstead, UK) (supplemented with 5% laked horse blood for Streptococcus spp., Corynebacterium jeikeium and Listeria monocytogenes) was used for aerobic bacteria, with an initial inoculum of approximately 10^5 colony-forming units (CFU)/m L.

Salmonella sp = assay: MIC microbroth dilution (CLSI); type: cell-based
Excerpt: as §1

Shigella sp = assay: MIC microbroth dilution (CLSI); type: cell-based; conditions: antibiotic-susceptible clinical isolate
Excerpt: as §1

[3] = system: Stenotrophomonas maltophilia; assay: MIC microbroth dilution (CLSI); type: cell-based; conditions: antibiotic-susceptible clinical isolate
Excerpt: as §1

Streptococcus pyogenes [4] = type: cell-based; conditions: Macrolide (M-type) resistance clinical isolate
Excerpt: as §1

Clostridium difficile = assay: MIC microbroth dilution (CLSI); type: cell-based; set-up: unit not given beside the values; conditions: antibiotic-susceptible clinical isolate
Bacteroides fragilis = assay: MIC microbroth dilution (CLSI); type: cell-based; set-up: unit not given beside the values; conditions: ATCC 25285; SBB
Eggerthella lenta = assay: MIC microbroth dilution (CLSI); type: cell-based; set-up: unit not given beside the values; conditions: ATCC 43055; SBB
trypsin = assay: in vitro; type: in vitro ADME; conditions: pH 8.6
Method: Each peptide was dissolved in a 0.1 M NH4HCO3 buffer (pH 6.5) to yield a final peptide concentration of 1 mg/ml. A trypsin solution was prepared by dissolving 1 mg of trypsin in 50 ml 0.1 M NH4HCO3 buffer (pH 8.2). For the stability determination, 250 μl freshly made trypsin solution and 250 μl peptide solution were incubated in 2 ml of 0.1 M NH4HCO3 buffer (pH 8.6) at 37° C. on a rocking table. Aliquots of 0.5 ml were sampled at different time intervals, diluted with 0.5 ml water:acetonitrile (60:40 v/v) containing 1% TFA and analysed by RP-HPLC as described above. Samples without trypsin addition taken at 0 h and after 20 h at 37° C. were used as negative controls. Integration of the peak area at 254 nm for samples taken during the first 5 hours of the assay was used to generate the […].

Streptococcus pyogenes [5] = assay: Murine skin infection model, topical treatment; type: in vivo, mice; conditions: FIG. 2
Method: (§2) The skin of mice was infected with Staphylococcus aureus or Streptococcus pyogenes and subsequently given a total of three treatments at three hourly intervals. Three hours after the last treatment, skin biopsies were collected and the number of colony forming units (CFUs) present in the skin sample was determined. Results are shown in FIGS. 1 and 2, expressed as the number of colony forming units per mouse.
In experiment 2 (FIG. 2), compound 2 was applied in two different concentrations, as either a 1% or a 2% gel. A placebo gel and a known antibacterial “bactroban” were used as controls.
as §2, with “3, 4” for “1”, “5” for “2,”
In experiment 2 (FIG. 4), compound 7 was applied in two different concentrations, as either a 1% or a 2% gel. A placebo gel and a known antibacterial “bactroban (mupericin)” were used as controls.

[6] = system: Staphylococcus epidermidis RP62A; assay: Growth inhibition zones around silicone prosthetic liner; type: cell-based
Excerpt: (§3) Bacterial Strains: • Staphylococcus epidermidis RP62A • Staphylococcus hominis 58-69
(§4) The level of bacterial inhibition was examined by number of CFU and growth zone inhibition. All materials tested were washed with water after completion of the swell and dry procedure to ensure that the activity of the materials was due to internally absorbed AMC-109 only.

[7] = system: Staphylococcus hominis 58-69; assay: as above; type: cell-based
Excerpt: as §3, §4

[8] = system: Staphylococcus aureus, strain ATCC 25923; conditions: S. aureus ATCC 25923
[9] = system: Methicillin resistant Staphylococcus aureus (MRSA) strain ATCC 33591; conditions: MRSA ATCC 33591
[10] = system: Methicillin resistant Staphylococcus epidermidis (MRSE) strain ATCC 27626; conditions: MRSE ATCC 27626
S. aureus (ATCC 8325) = assay: Modified AATCC 100 method, silicone membrane valves
P. aeruginosa (PAO1) = assay: as above; conditions: low loading, original surface (A*)
E. coli (5067-6002) = assay: as above; conditions: low loading, original surface (A*)
S. epidermidis (RP62A) = assay: as above; conditions: low loading, original surface (A*)

Which results are given for `CC(C)(C)c1cc(C(C)(C)C)c2[nH]c(C(C)(C)C)c(CC(NC(=O)C(N)CCCNC(=N)N)C(=O)NC(CCCNC(=N)N)C(=O)NCCc3ccccc3)c2c1` (stereo not shown) [Compound 2]?
MIC (Candida tropicalis): 4; MIC (Aspergillus niger): 8; MIC [1]: 8; MIC [2]: 8; MIC (Microsporum canis): 8; MIC (Cryptococcus neoformans): 4; MIC (Enterococcus gallinarum): 4; MIC (Salmonella sp; antibiotic-susceptible clinical isolate): 8; MIC (Salmonella sp; multi-drug resistant clinical isolate): 8; MIC (Shigella sp): 8; MIC [3]: 8; MIC (Streptococcus pyogenes [4]): 16; MIC (Clostridium difficile): 16; MIC (Bacteroides fragilis): 64; MIC (Eggerthella lenta): 32; half-life at 0.1 mg/ml (trypsin): > 24 h; number of CFUs, 2% gel compared with 1% gel (Streptococcus pyogenes [5]): more effective than the gel containing only 1% of compound 2; number of colony forming units (CFU) in skin biopsy (Streptococcus pyogenes [5]; 1% or 2% gel, three treatments at three hourly intervals): more effective at reducing the number of CFUs than the placebo gel or the bactroban; growth inhibition zone ([6]; 5 minutes swell time): 3 mm; growth inhibition zone ([6]; 15 minutes swell time): 3 mm; growth inhibition zone ([7]; 5 minutes swell time): 4 mm; growth inhibition zone ([7]; 15 minutes swell time): 2 mm; MIC [8]: <3 µM; MIC [9]: <3 µM; MIC [10]: <3 µM; minimum inhibitory concentration (MIC) (S. aureus): 2 to 4 µg/mL; minimum inhibitory concentration (MIC) (S. epidermidis): 2 to 4 µg/mL; CFU (samples containing AMC-109) (S. aureus (ATCC 8325); High loading, swell concentration 8.3 mg/ml, original surface (A*)): 0; CFU (samples containing AMC-109) (S. aureus (ATCC 8325); Low loading, 1.7 mg/ml, surface created by slicing (B*)): 0; CFU (samples containing AMC-109) (S. aureus (ATCC 8325); Low with washing, 3.1 mg/ml, original surface (A*)): 0; CFU (samples containing AMC-109) (S. aureus (ATCC 8325); Low with washing, 3.1 mg/ml, surface created by slicing (B*)): 0; CFU (samples containing AMC-109) (P. aeruginosa (PAO1)): 0; CFU (samples containing AMC-109) (E. coli (5067-6002)): 0; CFU (samples containing AMC-109) (S. epidermidis (RP62A)): 0

Reference: patent US20230233736A1, “ANTIMICROBIAL FORMULATIONS COMPRISING SILICONE” (AMICOAT AS, priority 2020, published 2023)
